Measured values taken from patent US9975907B2, “Pyrimidinones as PI3K inhibitors” (Incyte Corporation, priority 2009, dated 2018).
Counter-ions that a name gives are not always drawn.

target: PI3Kδ (p110δ/p85α) (Homo sapiens (Human), UniProt O00329); assay: PI3Kδ Scintillation Proximity Assay (Assay A3); assay type: biochemical; conditions: column b, Assay A3 (SPA), 20 μM ATP
Description: [γ-^33P]ATP (10 mCi/mL) was purchased from Perkin-Elmer (Waltham, Mass.). Lipid kinase substrate, D-myo-Phosphatidylinositol 4,5-bisphosphate (PtdIns(4,5)P2)D (+)-sn-1,2-di-O-octanoylglyceryl, 3-O-phospho linked (PIP2), CAS 204858-53-7, was purchased from Echelon Biosciences (Salt Lake City, Utah). PI3Kδ (p110δ/p85α) was purchased from Millipore (Bedford, Mass.). ATP, MgCl2, DTT, EDTA, MOPS and CHAPS were purchased from Sigma-Aldrich (St. Louis, Mo.). Wheat Germ Agglutinin (WGA) YSi SPA Scintillation Beads was purchased from GE healthcare life sciences (Piscataway, N.J.).
The kinase reaction was conducted in polystyrene 384-well matrix white plate from Thermo Fisher Scientific in a final volume of 25 μL. Inhibitors were first diluted serially in DMSO and added to the plate wells before the addition of other reaction components. The final concentration of DMSO in the assay was 0.5%. The PI3K assays were carried out at room temperature in 20 mM MOPS, pH 6.7, 10 mM MgCl2, 5 mM DTT and CHAPS 0.03%. Reactions were initiated by the addition of ATP, the final reaction mixture consisted of 20 μM PIP2, 20 μM ATP, 0.2 μCi [γ-^33P] ATP, 4 nM PI3Kδ. Reactions were incubated for 210 min and terminated by the addition of 40 μL SPA beads suspended in quench buffer: 150 mM potassium phosphate pH 8.0, 20% glycerol. 25 mM EDTA, 400 μM ATP. The final concentration of SPA beads was 1.0 mg/mL. After the plate sealing, plates were shaken overnight at room temperature and centrifuged at 1800 rpm for 10 minutes, the radioactivity of the product was determined by scintillation counting on Topcount (Perkin-Elmer). IC50 determination was performed by fitting the curve of percent control activity versus the log of the inhibitor concentration using the GraphPad Prism 3.0 software.

Chain of PI3Kδ (p110δ/p85α) (O00329 whole entry, species assumed): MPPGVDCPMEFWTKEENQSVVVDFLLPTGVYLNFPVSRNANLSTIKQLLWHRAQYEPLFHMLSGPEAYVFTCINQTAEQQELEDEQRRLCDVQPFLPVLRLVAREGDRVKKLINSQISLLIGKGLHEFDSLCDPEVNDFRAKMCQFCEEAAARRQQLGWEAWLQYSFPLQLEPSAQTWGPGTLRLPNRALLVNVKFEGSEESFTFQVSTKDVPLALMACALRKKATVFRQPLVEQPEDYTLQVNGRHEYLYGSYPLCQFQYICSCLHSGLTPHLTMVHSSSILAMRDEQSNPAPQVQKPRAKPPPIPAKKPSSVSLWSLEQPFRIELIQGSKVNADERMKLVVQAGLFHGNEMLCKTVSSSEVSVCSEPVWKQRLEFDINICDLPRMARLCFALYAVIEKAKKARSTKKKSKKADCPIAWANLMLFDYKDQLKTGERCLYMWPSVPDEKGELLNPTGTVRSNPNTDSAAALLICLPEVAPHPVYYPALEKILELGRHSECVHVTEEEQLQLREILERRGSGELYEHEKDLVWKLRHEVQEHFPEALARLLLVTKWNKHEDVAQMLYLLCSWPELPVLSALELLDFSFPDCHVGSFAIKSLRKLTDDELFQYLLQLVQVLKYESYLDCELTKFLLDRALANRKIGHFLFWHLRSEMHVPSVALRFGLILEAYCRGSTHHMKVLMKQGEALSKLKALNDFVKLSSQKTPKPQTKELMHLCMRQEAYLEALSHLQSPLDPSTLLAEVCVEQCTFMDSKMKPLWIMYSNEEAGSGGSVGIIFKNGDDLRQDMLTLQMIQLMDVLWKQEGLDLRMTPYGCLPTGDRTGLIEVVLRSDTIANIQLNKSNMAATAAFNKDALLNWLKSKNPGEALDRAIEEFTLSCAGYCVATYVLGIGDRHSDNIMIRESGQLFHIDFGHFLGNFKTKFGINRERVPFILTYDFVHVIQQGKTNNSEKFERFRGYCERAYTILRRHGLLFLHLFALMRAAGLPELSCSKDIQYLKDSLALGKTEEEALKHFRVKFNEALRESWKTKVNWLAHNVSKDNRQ
Chain of PI3Kδ (p110δ/p85α) (P27986 whole entry partner, species assumed): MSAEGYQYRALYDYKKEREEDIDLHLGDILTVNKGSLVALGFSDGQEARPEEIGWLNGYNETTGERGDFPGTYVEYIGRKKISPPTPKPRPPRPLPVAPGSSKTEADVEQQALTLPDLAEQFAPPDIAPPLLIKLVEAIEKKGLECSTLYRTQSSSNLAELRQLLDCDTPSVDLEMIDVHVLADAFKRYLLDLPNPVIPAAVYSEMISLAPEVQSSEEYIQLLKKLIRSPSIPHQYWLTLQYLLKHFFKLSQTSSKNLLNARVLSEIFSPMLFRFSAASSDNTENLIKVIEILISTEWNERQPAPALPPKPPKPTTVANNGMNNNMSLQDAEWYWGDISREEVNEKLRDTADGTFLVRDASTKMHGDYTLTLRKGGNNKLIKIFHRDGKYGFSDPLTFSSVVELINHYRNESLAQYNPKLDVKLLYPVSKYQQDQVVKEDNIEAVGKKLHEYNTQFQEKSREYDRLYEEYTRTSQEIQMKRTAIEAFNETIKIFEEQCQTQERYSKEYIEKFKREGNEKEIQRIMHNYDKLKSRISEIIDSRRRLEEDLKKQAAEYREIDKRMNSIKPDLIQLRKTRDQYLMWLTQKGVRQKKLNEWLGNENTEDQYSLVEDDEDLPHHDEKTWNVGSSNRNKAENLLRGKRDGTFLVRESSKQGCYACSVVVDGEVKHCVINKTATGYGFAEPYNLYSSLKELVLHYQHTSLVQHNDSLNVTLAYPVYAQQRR

IC50 [nM]	SMILES
100 to 500	Cc1csc2nc(C(C)Nc3nc(F)nc4[nH]cnc34)c(-c3cc(F)cc(F)c3)c(=O)n12 (stereo not shown) [Example 18, 6-(3,5-difluorophenyl)-7-{1-[(2-fluoro-9H-purin-6-yl)amino]ethyl}-3-methyl-5H-[1,3]thiazolo[3,2-a]pyrimidin-5-one]
100 to 500	CC(Nc1nc(N)nc2[nH]cnc12)c1nc2ccccn2c(=O)c1-c1cc(F)cc(F)c1 (stereo not shown) [Example 80, 2-{1-[(2-Amino-9H-purin-6-yl)amino]ethyl}-3-(3,5-difluorophenyl)-4H-pyrido[1,2-a]pyrimidin-4-one trifluoroacetic acid salt]
< 50	Cc1csc2nc(C(C)Nc3ncnc4[nH]cnc34)c(-c3nccs3)c(=O)n12 (stereo not shown) [Example 20, 3-methyl-7-[1-(9H-purin-6-ylamino)ethyl]-6-(1,3-thiazol-2-yl)-5H-[1,3]thiazolo[3,2-a]pyrimidin-5-one trifluoroacetic acid salt]
> 500	Cc1cccc2nc(C(C)Nc3nc(N)nc4[nH]cnc34)c(-c3ccc(Cl)cc3)c(=O)n12 (stereo not shown) [Example 56, 2-{1-[(2-Amino-9H-purin-6-yl)amino]ethyl}-3-(4-chlorophenyl)-6-methyl-4H-pyrido[1,2-a]pyrimidin-4-one trifluoroacetic acid salt]
< 50	Cc1csc2nc(C(C)Nc3ncnc4[nH]cnc34)c(-c3cscn3)c(=O)n12 (stereo not shown) [Example 21, 3-methyl-7-[1-(9H-purin-6-ylamino)ethyl]-6-(1,3-thiazol-4-yl)-5H-[1,3]thiazolo[3,2-a]pyrimidin-5-one trifluoroacetic acid salt]
100 to 500	Cc1csc2nc([C@H](C)Nc3nc(O)nc4[nH]cnc34)c(-c3cccc(F)c3)c(=O)n12 [Example 47, 6-(3-Fluorophenyl)-7-{(1S)-1-[(2-hydroxy-9H-purin-6-yl)amino]ethyl}-3-methyl-5H-[1,3]thiazolo[3,2-a]pyrimidin-5-one]
> 500	Cc1cc(-c2c(C(C)Nc3ncnc4[nH]cnc34)nc3cccc(C)n3c2=O)cnc1Cl (stereo not shown) [Example 81, 3-(6-Chloro-5-methylpyridin-3-yl)-6-methyl-2-[1-(9H-purin-6-ylamino)ethyl]-4H-pyrido[1,2-a]pyrimidin-4-one trifluoroacetic acid salt]
> 500	CC(Nc1ncnc2[nH]cnc12)c1nc2ccccn2c(=O)c1-c1cc(F)cc(F)c1 (stereo not shown) [Example 79, 3-(3,5-Difluorophenyl)-2-[1-(9H-purin-6-ylamino)ethyl]-4H-pyrido[1,2-a]pyrimidin-4-one trifluoroacetic acid salt]
50 to 100	Cc1csc2nc(C(C)Nc3nc(N)nc4[nH]cnc34)c(-c3cncc(F)c3)c(=O)n12 (stereo not shown) [Example 38, 7-{1-[(2-amino-9H-purin-6-yl)amino]ethyl}-6-(5-fluoropyridin-3-yl)-3-methyl-5H-[1,3]thiazolo[3,2-a]pyrimidin-5-one trifluoroacetic acid salt]
50 to 100	Cc1csc2nc(C(C)Nc3nc(N)nc4[nH]cnc34)c(-c3cc(F)cc(Cl)c3)c(=O)n12 (stereo not shown) [Example 35, 7-{1-[(2-amino-9H-purin-6-yl)amino]ethyl}-6-(3-chloro-5-fluorophenyl)-3-methyl-5H-[1,3]thiazolo[3,2-a]pyrimidin-5-one trifluoroacetic acid salt]
100 to 500	CCc1cccc2nc(C(C)Nc3ncnc4[nH]cnc34)c(-c3cc(F)cc(F)c3)c(=O)n12 (stereo not shown) [Example 76, 3-(3,5-Difluorophenyl)-6-ethyl-2-[1-(9H-purin-6-ylamino)ethyl]-4H-pyrido[1,2-a]pyrimidin-4-one trifluoroacetic acid salt]
100 to 500	Cc1ccccc1-c1c(C(C)Nc2ncnc3[nH]cnc23)nc2cccc(C)n2c1=O (stereo not shown) [Example 63, 6-Methyl-3-(2-methylphenyl)-2-[1-(9H-purin-6-ylamino)ethyl]-4H-pyrido[1,2-a]pyrimidin-4-one trifluoroacetic acid salt]
100 to 500	Cc1cccc(-c2c(C(C)Nc3ncnc4[nH]cnc34)nc3cccc(C)n3c2=O)c1 (stereo not shown) [Example 51, 6-Methyl-3-(3-methylphenyl)-2-[1-(9H-purin-6-ylamino)ethyl]-4H-pyrido[1,2-a]pyrimidin-4-one trifluoroacetic acid salt]
50 to 100	Cc1csc2nc(C(C)Nc3ncnc4[nH]cnc34)c(-c3cccc(F)c3F)c(=O)n12 (stereo not shown) [Example 41, 6-(2,3-difluorophenyl)-3-methyl-7-[1-(9H-purin-6-ylamino)ethyl]-5H-[1,3]thiazolo[3,2-a]pyrimidin-5-one trifluoroacetic acid salt]
< 50	Cc1ccc(-c2c(C(C)Nc3ncnc4[nH]cnc34)nc3cccc(C)n3c2=O)cc1 (stereo not shown) [Example 64, 6-Methyl-3-(4-methylphenyl)-2-[1-(9H-purin-6-ylamino)ethyl]-4H-pyrido[1,2-a]pyrimidin-4-one trifluoroacetic acid salt]
> 500	CC(Nc1ncnc2[nH]cnc12)c1nc2sccn2c(=O)c1-c1cccc(F)c1 (stereo not shown) [Example 28, 6-(3-fluorophenyl)-7-[1-(9H-purin-6-ylamino)ethyl]-5H-[1,3]thiazolo[3,2-a]pyrimidin-5-one]
> 500	CC(Nc1nc(N)nc2[nH]cnc12)c1nc2sccn2c(=O)c1-c1cc(F)cc(F)c1 (stereo not shown) [Example 24, 7-{1-[(2-amino-9H-purin-6-yl)amino]ethyl}-6-(3,5-difluorophenyl)-5H-[1,3]thiazolo[3,2-a]pyrimidin-5-one]
< 50	Cc1cccc2nc(C(C)Nc3ncnc4[nH]cnc34)c(-c3cc(F)ccc3F)c(=O)n12 (stereo not shown) [Example 67, 3-(2,5-Difluorophenyl)-6-methyl-2-[1-(9H-purin-6-ylamino)ethyl]-4H-pyrido[1,2-a]pyrimidin-4-one trifluoroacetic acid salt]
50 to 100	Cc1csc2nc(C(C)Nc3nc(N)nc4[nH]cnc34)c(-c3cccc(Cl)c3)c(=O)n12 (stereo not shown) [Example 32, 7-{1-[(2-amino-9H-purin-6-yl)amino]ethyl}-6-(3-chlorophenyl)-3-methyl-5H-[1,3]thiazolo[3,2-a]pyrimidin-5-one trifluoroacetic acid salt]
100 to 500	Cc1cccc2nc(C(C)Nc3ncnc4[nH]cnc34)c(-c3cccc(C#N)c3)c(=O)n12 (stereo not shown) [Example 83, 3-{6-Methyl-4-oxo-2-[1-(9H-purin-6-ylamino)ethyl]-4H-pyrido[1,2-a]pyrimidin-3-yl}benzonitrile trifluoroacetic acid salt]
100 to 500	Cc1ccc(-c2c(C(C)Nc3ncnc4[nH]cnc34)nc3scc(C)n3c2=O)cc1 (stereo not shown) [Example 31, 3-methyl-6-(4-methylphenyl)-7-[1-(9H-purin-6-ylamino)ethyl]-5H-[1,3]thiazolo[3,2-a]pyrimidin-5-one trifluoroacetic acid salt]
< 50	Cc1cccc(-c2c(C(C)Nc3nc(N)nc4[nH]cnc34)nc3cccc(C)n3c2=O)c1 (stereo not shown) [Example 52, 2-{1-[(2-Amino-9H-purin-6-yl)amino]ethyl}-6-methyl-3-(3-methylphenyl)-4H-pyrido[1,2-a]pyrimidin-4-one trifluoroacetic acid salt]
100 to 500	Cc1cccc2nc(C(C)Nc3ncnc4[nH]cnc34)c(-c3ccc(F)c(F)c3)c(=O)n12 (stereo not shown) [Example 68, 3-(3,4-Difluorophenyl)-6-methyl-2-[1-(9H-purin-6-ylamino)ethyl]-4H-pyrido[1,2-a]pyrimidin-4-one trifluoroacetic acid salt]
< 50	Cc1csc2nc(C(C)Nc3ncnc4[nH]cnc34)c(-c3cc(F)ccc3F)c(=O)n12 (stereo not shown) [Example 45, 6-(2,5-difluorophenyl)-3-methyl-7-[1-(9H-purin-6-ylamino)ethyl]-5H-[1,3]thiazolo[3,2-a]pyrimidin-5-one trifluoroacetic acid salt]
100 to 500	CC(Nc1nc(N)nc2[nH]cnc12)c1nc2sccn2c(=O)c1-c1ccccc1 (stereo not shown) [Example 27, 7-{1-[(2-amino-9H-purin-6-yl)amino]ethyl}-6-phenyl-5H-[1,3]thiazolo[3,2-a]pyrimidin-5-one]
> 500	Cc1cc(-c2c(C(C)Nc3nc(N)nc4[nH]cnc34)nc3cccc(C)n3c2=O)cnc1Cl (stereo not shown) [Example 82, 2-{1-[(2-Amino-9H-purin-6-yl)amino]ethyl}-3-(6-chloro-5-methylpyridin-3-yl)-6-methyl-4H-pyrido[1,2-a]pyrimidin-4-one trifluoroacetic acid salt]
100 to 500	Cc1csc2nc(C(C)Nc3ncnc4[nH]cnc34)c(-c3cncc(F)c3)c(=O)n12 (stereo not shown) [Example 42, 6-(5-fluoropyridin-3-yl)-3-methyl-7-[1-(9H-purin-6-ylamino)ethyl]-5H-[1,3]thiazolo[3,2-a]pyrimidin-5-one trifluoroacetic acid salt]
< 50	Cc1cccc2nc(C(C)Nc3ncnc4[nH]cnc34)c(-c3ccccc3Cl)c(=O)n12 (stereo not shown) [Example 57, 3-(2-Chlorophenyl)-6-methyl-2-[1-(9H-purin-6-ylamino)ethyl]-4H-pyrido[1,2-a]pyrimidin-4-one trifluoroacetic acid salt]
